Structures can show the parent of a compound that is named as a salt.
Columns and labels:
[1] = molecular target: T1, Falcipain-2 (Plasmodium falciparum, UniProt Q8I6U4); test: falcipain-2 enzymatic assay (fluorogenic substrate H-D-VLR-AFC, endpoint); assay type: biochemical; settings: parasitic recombinant enzyme, pH 5.5, quenched after 60 minutes
T1 sequence (Q8I6U4 244-484): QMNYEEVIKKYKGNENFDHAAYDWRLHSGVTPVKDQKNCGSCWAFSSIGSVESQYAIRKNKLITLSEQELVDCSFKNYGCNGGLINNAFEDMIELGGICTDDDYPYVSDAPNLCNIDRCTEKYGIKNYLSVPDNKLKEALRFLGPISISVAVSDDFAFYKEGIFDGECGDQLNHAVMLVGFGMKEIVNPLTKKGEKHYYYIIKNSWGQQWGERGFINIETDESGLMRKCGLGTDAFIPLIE

[2] = molecular target: T2, Falcipain-3 (Plasmodium falciparum, UniProt Q8IIL0); test: falcipain-3 enzymatic assay (fluorogenic substrate H-D-VLR-AFC, endpoint); assay type: biochemical; settings: parasitic recombinant enzyme, pH 5.5, quenched after 60 minutes
T2 sequence (Q8IIL0 243-492): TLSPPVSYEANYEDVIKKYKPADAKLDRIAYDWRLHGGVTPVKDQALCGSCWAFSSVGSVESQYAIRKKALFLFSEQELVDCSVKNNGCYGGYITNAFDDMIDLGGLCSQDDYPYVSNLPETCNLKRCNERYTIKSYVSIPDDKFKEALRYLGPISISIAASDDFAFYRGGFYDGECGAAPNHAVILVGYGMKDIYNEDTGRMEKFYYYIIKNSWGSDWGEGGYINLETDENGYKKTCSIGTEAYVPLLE

[3] = tested on: Plasmodium falciparum parasite; test: whole cell activity against the Plasmodium falciparum parasite; assay type: cell-based

IC50 [1]	IC50 [2]	IC50 [3]	Structure (SMILES)
1 to 2.5 nM	15 to 150 nM	150 to 250 nM	CN(C)C1CCN(C(=O)n2cnc3c(N(NC(=O)OC(C)(C)C)C4CCCC4)nc(C#N)nc32)CC1 [Example 48, 1,1-dimethylethyl 2-(2-cyano-9-{[4-(dimethylamino)-1-piperidinyl]carbonyl}-9H-purin-6-yl)-2-cyclopentylhydrazinecarboxylate trifluoroacetate]
2.5 to 15 nM	15 to 150 nM	> 1000 nM	CN(C)CCCCNC(=O)n1cnc2c(N(NC(=O)OC(C)(C)C)C3CCCC3)nc(C#N)nc21 [Example 49, 1,1-dimethylethyl 2-[2-cyano-9-({[4-(dimethylamino)butyl]amino}carbonyl)-9H-purin-6-yl]-2-cyclopentylhydrazinecarboxylate trifluoroacetate]
